Where only a bound is given, the exact number is not on record here.

From patent US20180112193A1, “CSF1 THERAPEUTICS” (University Court Of The University Of Edinburgh, priority 2013, published 2018) come the findings set out here.

For data set [1], the system named is male C57BI6 mice. Put plainly: Paracetamol intoxication in mice. The data set is classed as in vivo, mouse. Conditions: CSF1 receptor blockade, 180 mg/kg via gavage; Day 3 post injury. The protocol:
(§1) Forty-eight male C57BI6 mice aged 10-12 weeks underwent either 2/3 partial hepatectomy, paracetamol intoxication or chronic liver injury plus 2/3 partial hepatectomy. 2/3 partial hepatectomy was performed by ligating the left lobe and left and right median lobes. Paracetamol intoxication was performed by intraperitoneal administration of 350 mg/kg paracetamol dissolved in phosphate buffered saline (PBS). Chronic liver injury plus 2/3 partial hepatectomy was performed by eight weeks intraperitoneal carbon tetrachloride administration 1 mcl/g twice weekly dissolved in olive oil followed by ⅔ partial hepatectomy as described above. […] Control mice (n=8 per injury model) received subcutaneous PBS of appropriate volume. All mice were culled on day 4 following injury (partial hepatectomy or paracetamol intoxication).
(§2) Following a midline laparotomy the liver was excised and weighed. Liver weight to body weight ratio was calculated and expressed as a percentage. Livers were fixed in 4% formalin overnight then transferred to 70% ethanol. Livers were then embedded in paraffin blocks and 4 μm sections cut. Immunohistochemistry for Ki67 (a marker of cellular proliferation expressed throughout the cell cycle) was performed following heat mediated antigen retrieval in Tris/EDTA solution at pH9. Hepatocyte proliferation was quantified by counting ki67 positive hepatocytes in 20 high powered fields (400×) per animal and the mean calculated.
Hepatic CSF1 gene expression was assessed in mice following paracetamol intoxication (350 mg/kg paracetamol IP following overnight fast) at time points up to 4 days, showing peak CSF1 gene expression at day 2 (FIG. 14A).

For data set [2], the system named is male C57BI6 mice. Put plainly: 2/3 partial hepatectomy in mice. Format: in vivo, mouse. The protocol:
as §1, with “All mice were culled on day 4 following injury (partial hepatectomy or paracetamol intoxication).” left out
as §2, with “calculated. […]” for “calculated.”

The nature of a further data set: Pig PK (plasma ELISA). Format: in vivo. Particulars: weaner pigs; 0.5 mg/kg SC. The protocol:
Porcine CSF-1 Fc-fusion plasma levels were detected using an in-house developed conventional sandwich ELISA utilizing commercially available antibodies. Capture antibody was Abcam ab9693 (0.3 μg/mL) and detection antibody was Rabbit anti-pig IgG (Fc) biotinylated Alpha Diagnostic 90440 (1:5000 dilution). Standard protein was generated and purified in-house (lot 2/24/11 JAS). Standards were added to each plate along with the samples resulting in an 11 point standard range of 2700 ng/mL to […]. This allowed for quantitation of each sample to a standard curve on every assay plate. Assay detection was done using Pierce High Sensitivity Streptavidin-HRP (1:10,000 dilution) and TMB Microwell Peroxidase Substrate System solution (KPL).
Weaner age barrows (<14 kg) were assigned to three treatment groups receiving a single intravenous (IV) or subcutaneous (SC) dose as follows. Three pigs received 0.5 mg/kg CSF-1 non-fusion dosed SC. Two pigs received 1.2 mg/kg CSF-1:Fc fusion dosed IV. Two pigs received 1.2 mg/kg CSF-1:Fc dosed SC. One ml plasma samples were obtained via the V. jugularis in EDTA anticoagulant tubes and placed on ice until centrifuged. The plasma was transferred to sterile tubes stored at ≤−10° C. until analysis. Serial plasma samples were obtained from each animal at pre-dose and 5 minutes, 30 minutes, 1 hour, 2 hours, 4 hours, 6 hours, 8, hours, 24 hours, 48 hours, and 72 hours post-dose. CSF-1 and CSF-1:Fc fusion protein levels were quantitated in plasma using ELISA assays.
(In general: In an ELISA, binding on a coated surface is turned into a signal by an enzyme label.)

Data set [3] relates to csf1r-EGFP (MacGreen) mice. Put plainly: Fc-CSF-1 injected subcutaneously into csf1r-EGFP mice on 4 days, sacrificed on the 5th day. Format: in vivo, mouse. Particulars: 1 mg/kg. The protocol:
Mice were injected with Fc-CSF-1 subcutaneously on each of 4 days and sacrificed on the 5th day. The mice were csf1r-EGFP (MacGreen) mice on the C57BI/6 background. Tissue processing and immunohistochemistry were carried out as described in (Alikhan et al Am J. Pathol. 179, 1243-1256, 2011 and Macdonald et al Blood. 116, 3955-3963, 2010). A comparison of the effect of recombinant pig CSF-1 or Fc-CSF-1 on the proliferation of mouse bone marrow cells or the Ba/F3 CS1R reporter cell line using the assay described in Gow et al Cytokine.

Where [4] appears, read: day 2 following partial hepatectomy, vs controls.

Regarding `COc1ccc(COc2ccc(Cc3cnc(N)nc3N)cc2OC)cc1` [GW2580, reference compound], in the data set on male C57BI6 mice [1], the hepatocyte proliferation entry was “impaired”, the “liver weight to body weight ratio” value was “reduced” and the “serum ALT (marker of liver injury)” value is given as “raised”. Moreover, the “serum ALT (marker of liver injury)” value with male C57BI6 mice [2] (CSF1 receptor blockade, 180 mg/kg via gavage) is recorded as “raised”. Besides, in the data set with male C57BI6 mice [2] (CSF1 receptor blockade, 180 mg/kg via gavage, Day 3), the hepatocyte proliferation result is “markedly impaired”. Further, in the data set on male C57BI6 mice [2] (setting [4]), the “gene expression of oncostatin M (OSM)” value is given as “significant reduction” and the “gene expression of pro-regenerative cytokine 116” value is recorded as “significant reduction”. In the data set with male C57BI6 mice [2] (following partial hepatectomy, vs controls), the “urokinase receptor (UR) expression” value is recorded as “reduction”.

B1: CSF-1: unmodified recombinant pig CSF-1 protein, non-fusion comparator (protein)
chain: SENCSHMIGDGHLKVLQQLIDSQMETSCQIAFEFVDQEQLTDPVCYLKKAFLQVQDILDETMRFRDNTPNANVIVQLQELSLRLNSCFTKDYEEQDKACVRTFYETPLQLLEKIKNVFNETKNLLKKDWNIFSKNCNNSFAKCSSQDVVTKPDCN
Regarding B1, in “Pig PK (plasma ELISA)”, the peak plasma level result is listed as “around 100 ng/ml” and the “time by which completely cleared from plasma” value is at most 20 h. Also, the total body weight entry in data set [3] was “no effect”.
